Measurements reported in patent publication US6723716B1, “7-acylamino-3-heteroarylthio-3-cephem carboxylic acid antibiotics and prodrugs thereof” (Essential Therapeutics, Inc., priority 1999, dated 2004).
Values after ≈ are worked out from the molar mass of the structure shown.

Columns and labels:
[1] = tested on: S. aureus ATCC29213; experiment: Human serum binding effect: MIC with and without human serum; assay type: cell-based, Staphylococcus aureus; conditions: 1:1 human serum:MHB
How it was run: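 Serum binding was estimated as the ratio of S. aureus ATCC29213 MIC in 1:1 human serum:Mueller-Hinton broth to MIC without serum. Compounds were serially 2-fold diluted, and wells received an early-log-phase inoculum at 1×10^6 CFU/mL final. Inoculum size was checked by colony counts on TSA after overnight incubation at 35 °C.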

[2] = tested on: P. aeruginosa ATCC 27853; experiment: Broth microdilution MIC (NCCLS); assay type: cell-based; conditions: Pseudomonas aeruginosa, ATCC27853
Protocol: (§1) Compounds were evaluated for antimicrobial activity against a panel of bacterial strains using a broth microdilution assay performed as recommended by the NCCLS (1). The minimum inhibitory concentration (MIC) was defined as the lowest concentration of drug which prevented the growth of the bacteria.
(§2) For this primary panel, the assay was performed in Mueller-Hinton Broth (MHB) with a final bacterial inoculum of 5×10^5 CFU/mL (from an early-log phase culture) and a final volume of 100 μL. Control drugs, including imipenem, vancomycin, Penicillin G, dicloxacillin (vs. MSSA ATCC29213 only), and new compounds were prepared at a concentration equivalent to 2-fold the desired final concentration. Dilution of compounds were prepared directly in the plates by serial 2-fold dilution using a multichannel pipette. Positive and negative growth control were included in each plate.
(§3) The bacterial inocula were prepared as follows. For each strain one isolated colony was used to inoculate a volume of 8 mL of Mueller-Hinton broth and these cultures were incubated overnight (20 h) at 35° C. in a shaking incubator. At the exception of Enterococcus strains, culture were then diluted 1:10 and allowed to grow for an additional one hour at 35° C. in a shaking incubator. The inocula were prepared by diluting the early log-phase (1 h) cultures 1:1000 with fresh Mueller-Hinton broth. E. faecium and E. faecalis were prepared by diluting overnight cultures 1:333 and 1:666, respectively, with fresh Mueller-Hinton broth. A volume of 50 μL of the inocula was added to each well. […] The exact inocula were determined by applying 10 μL of 10-fold serial dilution of the bacterial suspensions on TSA. After overnight incubation at 35° C., colony forming units were manually counted.
(§4) Microtiter plates were incubated during 24 h at 35° C. and were read using a microtiterplate reader (Molecular Devices) at 650 nm as well as by visual observation using a microtiterplate reading mirror.

[3] = tested on: S. haemolyticus 05 (Meth^R); experiment: Broth microdilution MIC (NCCLS); assay type: cell-based; conditions: Staphylococcus haemolyticus
Protocol: as §1, §2, §3, §4

[4] = tested on: S. aureus ATCC 33593 (Meth^R); experiment: Broth microdilution MIC (NCCLS); assay type: cell-based; conditions: Staphylococcus aureus, ATCC33593
Protocol: as §1, §2, §3, §4

[5] = tested on: S. aureus ATCC 29213; experiment: Broth microdilution MIC (NCCLS); assay type: cell-based; conditions: Staphylococcus aureus, ATCC29213; S. aureus ATCC 29213; Mueller-Hinton broth, 24 h at 35° C.; read-out: MIC
Protocol: as §1, §2, §3, §4

[6] = tested on: S. aureus Col (Meth^R)(lac^−); experiment: Broth microdilution MIC (NCCLS); assay type: cell-based; conditions: Staphylococcus aureus
Protocol: as §1, §2, §3, §4

[7] = tested on: E. faecium VanA (Van^R); experiment: Broth microdilution MIC (NCCLS); assay type: cell-based; conditions: Enterococcus faecium
Protocol: as §1, §2, §3, §4

[8] = tested on: S. aureus Spain #356 (Meth^R); experiment: Broth microdilution MIC (NCCLS); assay type: cell-based; conditions: Staphylococcus aureus, 24 h
Protocol: as §1, §2, §3, §4

[9] = tested on: S. aureus 76 (Meth^R)(lac^+); experiment: Broth microdilution MIC (NCCLS); assay type: cell-based; conditions: Staphylococcus aureus
Protocol: as §1, §2, §3, §4

[10] = tested on: E. faecium ATCC 35667; experiment: Broth microdilution MIC (NCCLS); assay type: cell-based; conditions: Enterococcus faecium, ATCC35667
Protocol: as §1, §2, §3, §4

[11] = tested on: E. coli ATCC25992; experiment: Broth microdilution MIC (NCCLS); assay type: cell-based; conditions: Escherichia coli
Protocol: as §1, §2, §3, §4

[12] = tested on: S. aureus PC1 (Meth^S)(lac^+); experiment: Broth microdilution MIC (NCCLS); assay type: cell-based; conditions: Staphylococcus aureus
Protocol: as §1, §2, §3, §4

[13] = tested on: S. aureus ATCC 13709 (Meth^S); experiment: Broth microdilution MIC (NCCLS); assay type: cell-based; conditions: Staphylococcus aureus, ATCC13709, S. aureus ATCC 13709 (Meth^S); read-out: MIC
Protocol: as §1, §2, §3, §4

[14] = tested on: E. faecium A491 (Amp^R); experiment: Broth microdilution MIC (NCCLS); assay type: cell-based; conditions: Enterococcus faecium
Protocol: as §1, §2, §3, §4

[15] = tested on: E. faecalis VanB (Van^R); experiment: Broth microdilution MIC (NCCLS); assay type: cell-based; conditions: Enterococcus faecalis
Protocol: as §1, §2, §3, §4

[16] = tested on: S. aureus Col8A (Meth^S)(lac^−); experiment: Broth microdilution MIC (NCCLS); assay type: cell-based; conditions: Staphylococcus aureus
Protocol: as §1, §2, §3, §4

[17] = tested on: E. faecalis ATCC 29212; experiment: Broth microdilution MIC (NCCLS); assay type: cell-based; conditions: Enterococcus faecalis, ATCC29212
Protocol: as §1, §2, §3, §4

| Compound | Human serum binding effect (ratio of MIC value determined with and without human serum added) [1] | MIC [2] [µg/mL] | MIC [3] [µg/mL] | MIC [4] [µg/mL] | MIC [5] [µg/mL] | MIC [6] [µg/mL] | MIC [7] [µg/mL] | MIC [8] [µg/mL] | MIC [9] [µg/mL] | MIC [10] [µg/mL] | MIC [11] [µg/mL] | MIC [12] [µg/mL] | MIC [13] [µg/mL] | MIC [14] [µg/mL] | MIC [15] [µg/mL] | MIC [16] [µg/mL] | MIC [17] [µg/mL] |
| --- | --- | --- | --- | --- | --- | --- | --- | --- | --- | --- | --- | --- | --- | --- | --- | --- | --- |
| NCCSCc1nnc(SC2=C(C(=O)O)N3C(=O)[C@@H](NC(=O)/C(=N\O)c4nc(N)sc4Cl)[C@H]3SC2)s1 [Cmpd 10, (7R)-7-[(Z)-2-(2-amino-5-chlorothiazol-4-yl)-2-(hydroxyimino)acetamido]-3-(2-aminoethylthiomethyl-1,3,4-thiadiazol-5-ylthio)-3-cephem-4-carboxylic acid] | 1 | 16 (≈ 26.3 µM) | 4 (≈ 6.57 µM) | 2 (≈ 3.28 µM) | 0.5 (≈ 0.821 µM) | 2 (≈ 3.28 µM) | 2 (≈ 3.28 µM) | 4 (≈ 6.57 µM) | 2 (≈ 3.28 µM) | 1 (≈ 1.64 µM) | 1 (≈ 1.64 µM) | 0.5 (≈ 0.821 µM) | 0.13 (≈ 0.213 µM) | 8 (≈ 13.1 µM) | 0.25 (≈ 0.41 µM) | 0.25 (≈ 0.41 µM) | 0.13 (≈ 0.213 µM) |
| NCCSCc1nsc(SC2=C(C(=O)O)N3C(=O)[C@@H](NC(=O)/C(=N\O)c4nc(N)sc4Cl)[C@H]3SC2)n1 [Cmpd 12, (7R)-7-[(Z)-2-(2-amino-5-chlorothiazol-4-yl)-2-(hydroxyimino)acetamido]-3-[3-(2-aminoethylthiomethyl)-1,2,4-thiadiazol-5-ylthio]-3-cephem-4-carboxylic acid] | 256 | > 32 | 2 (≈ 3.28 µM) | 1 (≈ 1.64 µM) | 0.5 (≈ 0.821 µM) | 1 (≈ 1.64 µM) | 1 (≈ 1.64 µM) | 1 (≈ 1.64 µM) | 1 (≈ 1.64 µM) | 0.5 (≈ 0.821 µM) | 4 (≈ 6.57 µM) | 0.13 (≈ 0.213 µM) | 0.25 (≈ 0.41 µM) | 4 (≈ 6.57 µM) | 0.13 (≈ 0.213 µM) | 0.5 (≈ 0.821 µM) |  |
